This passage reports IC50 results from patent US10689377B2 (Mirati Therapeutics, Inc., priority 2017, dated 2020).

The structures appear in SMILES notation. Where a name gives a salt, the structure may show the parent alone. Where only a bound is given, the exact number is not on record here.

The IC50 is the midpoint of a concentration-inhibition curve.

KRas G12C, sequence (P01116 1-188 isoform P01116-2 G12C): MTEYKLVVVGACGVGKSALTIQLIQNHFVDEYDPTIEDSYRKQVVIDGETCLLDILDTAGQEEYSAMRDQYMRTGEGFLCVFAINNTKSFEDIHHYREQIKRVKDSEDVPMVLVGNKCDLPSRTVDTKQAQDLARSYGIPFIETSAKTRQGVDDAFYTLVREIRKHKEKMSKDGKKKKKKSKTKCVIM

This assay has as its target KRas G12C (Homo sapiens, UniProt P01116, G12C). As to the kind of experiment: Cellular inhibition of KRas G12C measured by Phospho-ERK in NCI-H358 cells. The class given is cell-based. The note with it: pERK(Thr202/Tyr204) normalized with GAPDH, NCI-H358 cells, 3 hours; read-out: IC50. The gist of the method:
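Readout is pERK(Thr202/Tyr204) immunofluorescence normalized to GAPDH, expressed as percent of DMSO control and fitted with a 4-parameter curve for IC50. Attached NCI-H358 cells received compound for 3 hours in 0.5% DMSO, followed by fixation and methanol permeabilization.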
Take `C=CC(=O)N1CCN(c2nc(OCCCN3CCCOCC3)nc3c2CCN(c2cc(O)cc4ccccc24)C3)CC1` [Example 101, 1-(4-(2-(3-(1,4-oxazepan-4-yl)propoxy)-7-(3-hydroxynaphthalen-1-yl)-5,6,7,8-tetrahydropyrido[3,4-d]pyrimidin-4-yl)piperazin-1-yl)prop-2-en-1-one]: the IC50 fell in the range of 0.1 to 1000 nM.

In the case of `C=CC(=O)N1CCN(c2nc(OCCN3CCCC(F)(F)C3)nc3c2CCN(c2cccc4cccc(Cl)c24)C3)C[C@@H]1CC#N` [Example 455, 2-[(2S)-4-[7-(8-chloro-1-naphthyl)-2-[2-(3,3-difluoro-1-piperidyl)ethoxy]-6,8-dihydro-5H-pyrido[3,4-d]pyrimidin-4-yl]-1-prop-2-enoyl-piperazin-2-yl]acetonitrile], the IC50 is 0.1 to 1000 nM.

As to `C=CC(=O)N1CCN(c2nc(OCC(C)N(C)C)nc3c2CCN(c2cc(O)cc4ccccc24)C3)CC1` (stereo not shown) [Example 73, 1-(4-(2-(2-(dimethylamino)propoxy)-7-(3-hydroxynaphthalen-1-yl)-5,6,7,8-tetrahydropyrido[3,4-d]pyrimidin-4-yl)piperazin-1-yl)prop-2-en-1-one], the IC50 is greater than 1000 nM.

Take `C=CC(=O)N1CCN(c2nc(OC[C@@H]3CCCN3C)nc3c2CCN(c2cccc(Cl)c2OC)C3)C[C@@H]1CC#N` [Example 422, 2-((S)-1-acryloyl-4-(7-(3-chloro-2-methoxyphenyl)-2-(((S)-1-methylpyrrolidin-2-yl)methoxy)-5,6,7,8-tetrahydropyrido[3,4-d]pyrimidin-4-yl)piperazin-2-yl)acetonitrile]: the IC50 lay in the range of 0.1 to 1000 nM.

For `C=CC(=O)N1CCN(c2nc(OC[C@@H]3CC(F)(F)CN3C)nc3c2CCN(c2cccc4cccc(Cl)c24)C3)C[C@@H]1CC#N` [Example 366, 2-[(2S)-4-[7-(8-chloro-1-naphthyl)-2-[[(2S)-4,4-difluoro-1-methyl-pyrrolidin-2-yl]methoxy]-6,8-dihydro-5H-pyrido[3,4-d]pyrimidin-4-yl]-1-prop-2-enoyl-piperazin-2-yl]acetonitrile], the IC50 fell in the range of 0.1 to 1000 nM.

In the case of `C=CC(=O)N1CCN(c2nc(OC[C@@H]3CCCN3CC3CC3)nc3c2CCN(c2cccc4ccccc24)C3)CC1CC#N` (stereo partly drawn) [Example 396, 2-(1-acryloyl-4-(2-(((S)-1-(cyclopropylmethyl)pyrrolidin-2-yl)methoxy)-7-(naphthalen-1-yl)-5,6,7,8-tetrahydropyrido[3,4-d]pyrimidin-4-yl)piperazin-2-yl)acetonitrile], the IC50 was in the range of 0.1 to 1000 nM.

Take `C=CC(=O)N1CCN(c2nc(OCC3CCN(C)C3)nc3c2CCN(c2c(C)ccc4[nH]ncc24)C3)CC1` (stereo not shown) [Example 161, 1-[4-[7-(5-methyl-1H-indazol-4-yl)-2-[(1-methylpyrrolidin-3-yl)methoxy]-6,8-dihydro-5H-pyrido[3,4-d]pyrimidin-4-yl]piperazin-1-yl]prop-2-en-1-one]: the IC50 is greater than 1000 nM.

For `C=CC(=O)N1CCN(c2nc(OC[C@@H]3CCCN3C)nc3c2CCN(c2cccc(F)c2OC)C3)CC1CC#N` (stereo partly drawn) [Example 308, 2-(1-acryloyl-4-(7-(3-fluoro-2-methoxyphenyl)-2-(((S)-1-methylpyrrolidin-2-yl)methoxy)-5,6,7,8-tetrahydropyrido[3,4-d]pyrimidin-4-yl)piperazin-2-yl)acetonitrile], the IC50 was 0.1 to 1000 nM.

With `Cc1cccc2cccc(N3CCc4c(nc(OC[C@@H]5CCCN5C)nc4N4CCN(C(=O)/C=C/c5ccncc5)[C@@H](CC#N)C4)C3)c12` [Example 526, 2-((S)-4-(7-(8-methylnaphthalen-1-yl)-2-(((S)-1-methylpyrrolidin-2-yl)methoxy)-5,6,7,8-tetrahydropyrido[3,4-d]pyrimidin-4-yl)-1-((E)-3-(pyridin-4-yl)acryloyl)piperazin-2-yl)acetonitrile], the IC50 is 0.1 to 1000 nM.

Take `Cc1cccc(N2CCc3c(nc(OC[C@@H]4C[C@@H](F)CN4C)nc3N3CCN(C(=O)/C=C/CN(C)C)[C@@H](CC#N)C3)C2)c1C` [Example 438, 2-((S)-1-((E)-4-(dimethylamino)but-2-enoyl)-4-(7-(2,3-dimethylphenyl)-2-(((2S,4R)-4-fluoro-1-methylpyrrolidin-2-yl)methoxy)-5,6,7,8-tetrahydropyrido[3,4-d]pyrimidin-4-yl)piperazin-2-yl)acetonitrile]: the IC50 was in the range of 0.1 to 1000 nM.

Turning to `C=CC(=O)N1CCN(c2nc(OC[C@@H]3CCCN3C)nc3c2CCN(c2cccc4cccc(F)c24)C3)C[C@@H]1CC#N` [Example 338], the IC50 fell in the range of 0.1 to 1000 nM.

On to `C=CC(=O)N1CCN(c2ncnc3c2CCN(c2cccc4ccccc24)C3)CC1` [Example 3, 1-(4-(7-(naphthalen-1-yl)-5,6,7,8-tetrahydropyrido[3,4-d]pyrimidin-4-yl)piperazin-1-yl)prop-2-en-1-one], for which the IC50 was greater than 1000 nM.

Regarding `C=CC(=O)N1CCN(c2nc(OC[C@@H]3CCCN3C)nc3c2CCN(c2cccc4c(F)cccc24)C3)CC1CC#N` (stereo partly drawn) [Example 287, 2-[4-[7-(5-fluoro-1-naphthyl)-2-[[(2S)-1-methylpyrrolidin-2-yl]methoxy]-6,8-dihydro-5H-pyrido[3,4-d]pyrimidin-4-yl]-1-prop-2-enoyl-piperazin-2-yl]acetonitrile], the IC50 lay in the range of 0.1 to 1000 nM.

Regarding `C=CC(=O)N1CCN(c2nc(OCC3CCN(CC(=O)N(C)C)C3)nc3c2CCN(c2cc(O)cc4ccccc24)C3)CC1` (stereo not shown) [Example 140, 2-[3-[[7-(3-hydroxy-1-naphthyl)-4-(4-prop-2-enoylpiperazin-1-yl)-6,8-dihydro-5H-pyrido[3,4-d]pyrimidin-2-yl]oxymethyl]pyrrolidin-1-yl]-N,N-dimethyl-acetamide], the IC50 was greater than 1000 nM.

With `C=CC(=O)N1CCN(c2nc(OCCN3CCC[C@H](F)C3)nc3c2CCN(c2cc(O)cc4ccccc24)C3)CC1` [Example 111, (S)-1-(4-(2-(2-(3-fluoropiperidin-1-yl)ethoxy)-7-(3-hydroxynaphthalen-1-yl)-5,6,7,8-tetrahydropyrido[3,4-d]pyrimidin-4-yl)piperazin-1-yl)prop-2-en-1-one], the IC50 lay within 0.1 to 1000 nM.

As for `C=CC(=O)N1CCN(c2nc(OCCN3CCCC[C@H]3C)nc3c2CCN(c2cc(O)cc4ccccc24)C3)CC1` [Example 97, (R)-1-(4-(7-(3-hydroxynaphthalen-1-yl)-2-(2-(2-methylpiperidin-1-yl)ethoxy)-5,6,7,8-tetrahydropyrido[3,4-d]pyrimidin-4-yl)piperazin-1-yl)prop-2-en-1-one], the IC50 was in the range of 0.1 to 1000 nM.

`C=CC(=O)N1CCN(c2nc(OC[C@@H]3CCCN3C)nc3c2CCN(c2c(F)cccc2C(F)(F)F)C3)CC1CC#N` (stereo partly shown) [Example 275]: the IC50 fell in the range of 0.1 to 1000 nM.

Regarding `CO[C@@H]1C[C@H](COc2nc3c(c(N4CCN(C(=O)/C=C/CO)[C@@H](CC#N)C4)n2)CCN(c2cccc4cccc(C)c24)C3)N(C)C1` [Example 523, 2-[(2S)-1-[(E)-4-hydroxybut-2-enoyl]-4-[2-[[(2R,4R)-4-methoxy-1-methyl-pyrrolidin-2-yl]methoxy]-7-(8-methyl-1-naphthyl)-6,8-dihydro-5H-pyrido[3,4-d]pyrimidin-4-yl]piperazin-2-yl]acetonitrile], the IC50 lay within 0.1 to 1000 nM.

Regarding `C=CC(=O)N1CCN(c2nc(O[C@H](C)CN(C)C)nc3c2CCN(c2cc(OC(F)(F)F)ccc2O)C3)CC1` [Example 86, (R)-1-(4-(2-((1-(dimethylamino)propan-2-yl)oxy)-7-(2-hydroxy-5-(trifluoromethoxy)phenyl)-5,6,7,8-tetrahydropyrido[3,4-d]pyrimidin-4-yl)piperazin-1-yl)prop-2-en-1-one], the IC50 is greater than 1000 nM.

As to `C=CC(=O)N1CCN(c2nc(OC[C@H]3C[C@H](O)CN3C)nc3c2CCN(c2cccc(F)c2C(F)(F)F)C3)CC1CC#N` (stereo partly drawn) [Example 415, 2-(1-acryloyl-4-(7-(3-fluoro-2-(trifluoromethyl)phenyl)-2-(((2R,4S)-4-hydroxy-1-methylpyrrolidin-2-yl)methoxy)-5,6,7,8-tetrahydropyrido[3,4-d]pyrimidin-4-yl)piperazin-2-yl)acetonitrile], the IC50 is 0.1 to 1000 nM.

For the compound `C=CC(=O)N1CCN(c2nc(OCCCCN3CCOCC3)nc3c2CCN(c2cc(O)cc4ccccc24)C3)CC1` [Example 35, 1-(4-(7-(3-hydroxynaphthalen-1-yl)-2-(4-morpholinobutoxy)-5,6,7,8-tetrahydropyrido[3,4-d]pyrimidin-4-yl)piperazin-1-yl)prop-2-en-1-one trifluoroacetate], the IC50 is greater than 1000 nM.

As for `C=CC(=O)N1CCN(c2nc(OCCN3CCC(C)CC3)nc3c2CCN(c2cc(O)cc4ccccc24)C3)CC1` [Example 92, 1-(4-(7-(3-hydroxynaphthalen-1-yl)-2-(2-(4-methylpiperidin-1-yl)ethoxy)-5,6,7,8-tetrahydropyrido[3,4-d]pyrimidin-4-yl)piperazin-1-yl)prop-2-en-1-one], the IC50 lay in the range of 0.1 to 1000 nM.

For the compound `C=CC(=O)N1CCN(c2nc(OC[C@@H]3C[C@@H](O)CN3C)nc3c2CCN(c2cccc(Cl)c2C(F)(F)F)C3)C[C@@H]1CC#N` [Example 426, 2-((S)-1-acryloyl-4-(7-(3-chloro-2-(trifluoromethyl)phenyl)-2-(((2S,4R)-4-hydroxy-1-methylpyrrolidin-2-yl)methoxy)-5,6,7,8-tetrahydropyrido[3,4-d]pyrimidin-4-yl)piperazin-2-yl)acetonitrile], the IC50 lay in the range of 0.1 to 1000 nM.

With `CN1CC[C@@H](COc2nc3c(c(N4CCN(C(=O)/C=C/CF)[C@@H](CC#N)C4)n2)CCN(c2cccc4cccc(Cl)c24)C3)C1` [Example 584, 2-[(2S)-4-[7-(8-chloro-1-naphthyl)-2-[[(3R)-1-methylpyrrolidin-3-yl]methoxy]-6,8-dihydro-5H-pyrido[3,4-d]pyrimidin-4-yl]-1-[(E)-4-fluorobut-2-enoyl]piperazin-2-yl]acetonitrile], the IC50 lay in the range of 0.1 to 1000 nM.

Turning to `C=C(F)C(=O)N1CCN(c2nc(OC[C@@H]3CCCN3C)nc3c2CCN(c2cncc4ccc(C)cc24)C3)C[C@@H]1CC#N` [Example 607, 2-((S)-1-(2-fluoroacryloyl)-4-(7-(6-methylisoquinolin-4-yl)-2-(((S)-1-methylpyrrolidin-2-yl)methoxy)-5,6,7,8-tetrahydropyrido[3,4-d]pyrimidin-4-yl)piperazin-2-yl)acetonitrile], the IC50 fell in the range of 0.1 to 1000 nM.
